Data set [1] is described as follows: Safety/toxicology study in rats. As to conditions: rat, in vivo. The source says: Animals were sacrificed on Day 29 and necropsies performed.
Both halves were submitted for embedding.

For data set [2], the system named is TGFβ downstream tonic signaling. The conditions noted are these: non-diseased rat BAL; cited from earlier work.
The subject of data set [3] is intratumoral immune cells in MBT2 tumors. The experiment in a line: MBT2 tumor immune contexture (flow cytometry, IHC, qPCR). In kind it is in vivo, mouse. The conditions noted are these: MBT2 tumors (FIG. 30F). On the procedure:
Each study group contained 12 mice with MBT2 tumors as described herein. Ab6-treatment group received the antibody weekly, on day 1 and day 8, at 10 mg/kg. Anti-PD1 treatment group was treated biweekly at 10 mg/kg per injection, on days 1, 4, 8 and 11, total of 20 mg/kg per week. […] On day 13, tumors were collected from the mice as shown above.
Flow cytometric analysis: Tumor-associated immune cell subsets were also analyzed by tumor flow cytometry in MBT-2 tumors. Briefly, tumors were excised and weighed prior to dissociation using the Tumor Dissociation Kit for gentleMACS (Miltenyi). Samples were filtered through a 70 μm cell strainer to remove any aggregates. […] Flow cytometry was performed on a Attune NxT (ThermoFisher) and analyzed with FlowJo (BD Bioscience).
For immunohistochemical analysis, tumors from six animals were cut in halves and fixed. […] FIG. 30E provides the quantitation of the IHC data, shown as % of CD8-positive cells of total nuclei. […]
(In general: A flow cytometer gives signals particle by particle.)

Take `c1ccc(-c2nn3c(c2-c2ccnc4cc(OCCN5CCOCC5)ccc24)CCC3)nc1` [LY2109761]: the bone findings entry in data set [1] is “macroscopic abnormally shaped sternum and microscopic increased thickness of the hypertrophic zone in the endplate of the sternum and physis of the femur and tibia”. In addition, in data set [1] (po), the “incidence/severity of bone findings compared with pan-TGFβ antibody” value is given as “higher incidence and/or severity”. Moreover, the “inhibition of TGFβ downstream tonic signaling” value in data set [2] was “shown to inhibit TGFβ downstream tonic signaling”.

B1: Ab6-mIgG1: chimeric antibody with the human V domains of Ab6 fused to mouse IgG1/kappa constant domains (protein)
heavy chain: EVQLVESGGGLVQPGGSLRLSCTASGFTFSSFSMDWVRQAPGKGLEWVSYISPSADTIYYADSVKGRFTISRDNAKNTLYLQMNSLRAEDTAVYYCARGVLDYGDMLMPWGQGTLVTVSS
light chain: DIQMTQSPSSLSASVGDRVTITCQASQDITNYLNWYQQKPGKAPKLLIYDASNLETGVPSRFSGSGSGTDFTFTISSLQPEDIATYYCQQADNHPPWTFGGGTKVEIK
For the molecule B1, the “phospho-SMAD3 staining near tumor vascular endothelium (IHC)” value in data set [3] is “much diminished”.

Source of the values: US12252531B2, “Methods of screening for high-affinity, isoform-selective TGFβ1 inhibitors” (Scholar Rock, Inc., priority 2018, dated 2025).
